Results taken from ChEMBL document CHEMBL1201862, “PubChem BioAssay data set” (2004).
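Test compounds were applied to cells in 96-well plates for 48 hours at 5 doses. At the GI50, growth is halved.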 Activity calls are given as the source filed them. No stated cut-off is given here; in the data, active = GI50 up to about 1.1 µM and inactive = higher.

Tests used:
Experiment in all cases: NCI anticancer screen, dose series, 48 h
UACC-62 = test system: UACC-62
SK-MEL-2 = test system: SK-MEL-2
CCRF-CEM = test system: CCRF-CEM
BT-549 = test system: BT-549
OVCAR-8 = test system: OVCAR-8
SK-MEL-5 = test system: SK-MEL-5
HL-60 = test system: HL-60
SK-MEL-28 = test system: SK-MEL-28
MDA-MB-231 = test system: MDA-MB-231
Hs-578T = test system: Hs-578T
M14 = test system: M14
SNB-19 = test system: SNB-19
Malme-3M = test system: Malme-3M
HT-29 = test system: HT-29
HOP-92 = test system: HOP-92
SF-539 = test system: SF-539
KM12 = test system: KM12
MCF7 = test system: MCF7
DU-145 = test system: DU-145

Measured: GI50

COc1cc(NCCC(=O)O)c2ncccc2c1
inactive: UACC-62 > 100 µM | SK-MEL-2 38.8 µM | CCRF-CEM > 100 µM | BT-549 > 100 µM | OVCAR-8 > 100 µM | SK-MEL-5 > 100 µM | HL-60 > 100 µM | SK-MEL-28 > 100 µM | MDA-MB-231 > 100 µM | Hs-578T 23.9 µM | M14 > 100 µM | SNB-19 > 100 µM | Malme-3M > 100 µM | HT-29 > 100 µM | HOP-92 > 100 µM

COc1ccc(-c2c(C#N)c(O)n(C3OC(CO)C(O)C(O)C3O)c(=S)c2C#N)cc1 (centres undefined)
inactive: UACC-62 > 100 µM | SK-MEL-2 > 100 µM | CCRF-CEM > 100 µM | BT-549 > 100 µM | OVCAR-8 > 100 µM | SK-MEL-5 > 100 µM | HL-60 > 100 µM | SF-539 > 100 µM | KM12 > 100 µM | SK-MEL-28 > 100 µM | MDA-MB-231 > 100 µM | M14 > 100 µM | SNB-19 > 100 µM | Malme-3M > 100 µM | HT-29 > 100 µM | MCF7 > 100 µM | DU-145 > 100 µM

COC(=O)/C=C(\C)CC/C=C(\C)CCC1OC1(C)C (centres undefined)
inactive: UACC-62 10.1 µM | SK-MEL-2 10.9 µM | CCRF-CEM 4.65 µM | BT-549 11.5 µM | OVCAR-8 12.9 µM | SK-MEL-5 11.4 µM | HL-60 1.87 µM | SF-539 13.5 µM | KM12 9.48 µM | SK-MEL-28 12.3 µM | MDA-MB-231 12.1 µM | Hs-578T 16.1 µM | M14 12.6 µM | SNB-19 44.7 µM | Malme-3M 14.6 µM | HT-29 14 µM | MCF7 11.5 µM | HOP-92 11.9 µM

[N-]=[N+]=Nc1cc(=O)n(-c2ccccc2)c(=O)n1-c1ccccc1
inactive: UACC-62 67 µM | SK-MEL-2 > 100 µM | CCRF-CEM > 100 µM | BT-549 > 100 µM | OVCAR-8 > 100 µM | SK-MEL-5 > 100 µM | SF-539 > 100 µM | KM12 > 100 µM | SK-MEL-28 > 100 µM | MDA-MB-231 > 100 µM | Hs-578T > 100 µM | M14 > 100 µM | SNB-19 > 100 µM | Malme-3M > 100 µM | HT-29 > 100 µM | MCF7 > 100 µM | HOP-92 > 100 µM

CCN(CC)Cc1ccc(C(=S)Nc2ccc(C)cc2)s1
inactive: UACC-62 14.2 µM | SK-MEL-2 15.7 µM | CCRF-CEM 8.83 µM | BT-549 20.3 µM | OVCAR-8 14.8 µM | SK-MEL-5 13.4 µM | HL-60 9.66 µM | SF-539 20.4 µM | KM12 15.3 µM | SK-MEL-28 15 µM | Hs-578T 1.84 µM | M14 15.1 µM | SNB-19 19 µM | Malme-3M 16.5 µM | HT-29 4.08 µM | MCF7 12.3 µM | DU-145 20.5 µM

CCN(CC)CCOc1ccc(N2C(=O)c3cccc4cc([N+](=O)[O-])cc(c34)C2=O)cc1
inactive: SK-MEL-2 16.3 µM | CCRF-CEM 4.23 µM | OVCAR-8 10.9 µM | SK-MEL-5 12.1 µM | HL-60 11.8 µM | SF-539 9.02 µM | KM12 12.5 µM | SK-MEL-28 12.5 µM | MDA-MB-231 18.8 µM | Hs-578T 14.7 µM | M14 12.4 µM | SNB-19 12.8 µM | Malme-3M 13.8 µM | HT-29 4.91 µM | MCF7 3.56 µM | HOP-92 20 µM | DU-145 10.8 µM

Nc1ccc(C23CC4CC(C2)CC(c2ccc(N)cc2)(C4)C3)cc1
inactive: UACC-62 29 µM | SK-MEL-2 35.9 µM | CCRF-CEM 15.7 µM | BT-549 42.9 µM | OVCAR-8 85.1 µM | SK-MEL-5 13.1 µM | HL-60 31 µM | SF-539 16.4 µM | KM12 > 100 µM | SK-MEL-28 15 µM | MDA-MB-231 1.96 µM | M14 37.2 µM | SNB-19 37.8 µM | MCF7 31.8 µM | HOP-92 41.8 µM | DU-145 51.2 µM

O=c1[nH]nc(-c2ccccc2)n1O
inactive: UACC-62 > 100 µM | SK-MEL-2 > 100 µM | CCRF-CEM > 100 µM | OVCAR-8 > 100 µM | SK-MEL-5 > 100 µM | HL-60 > 100 µM | SF-539 > 100 µM | KM12 > 100 µM | SK-MEL-28 > 100 µM | MDA-MB-231 > 100 µM | Hs-578T > 100 µM | M14 > 100 µM | SNB-19 > 100 µM | Malme-3M > 100 µM | HT-29 > 100 µM | MCF7 > 100 µM | HOP-92 > 100 µM | DU-145 > 100 µM

COC(=O)C1(C(=O)OC)N=C(C)OC1c1ccccc1O (centres undefined)
inactive: UACC-62 > 100 µM | SK-MEL-2 > 100 µM | CCRF-CEM > 100 µM | BT-549 > 100 µM | OVCAR-8 > 100 µM | SK-MEL-5 > 100 µM | HL-60 > 100 µM | KM12 > 100 µM | SK-MEL-28 > 100 µM | M14 > 100 µM | SNB-19 > 100 µM | MCF7 > 100 µM | HOP-92 > 100 µM | DU-145 > 100 µM

CN(C)C(=O)Oc1ccc(C(=S)Nc2ccccc2)cc1Br
inactive: UACC-62 20.3 µM | SK-MEL-2 21.9 µM | CCRF-CEM 21 µM | BT-549 31.3 µM | OVCAR-8 17.6 µM | SK-MEL-5 16.9 µM | HL-60 16.8 µM | SF-539 72.3 µM | KM12 21.7 µM | SK-MEL-28 31.8 µM | Hs-578T 8.59 µM | M14 18.6 µM | SNB-19 74.6 µM | Malme-3M 33.6 µM | HT-29 21.4 µM | MCF7 25.8 µM | DU-145 54.5 µM

O=[N+]([O-])c1cccc2c(/N=N/c3ccc4ccccc4c3O)c(O)cc(S(=O)(=O)O)c12
inactive: UACC-62 7.78 µM | SK-MEL-2 22.6 µM | CCRF-CEM 3.05 µM | BT-549 74.6 µM | OVCAR-8 21.1 µM | SK-MEL-5 31 µM | HL-60 4.21 µM | KM12 55.6 µM | SK-MEL-28 44.3 µM | Hs-578T > 100 µM | M14 21.6 µM | SNB-19 > 100 µM | Malme-3M 14.6 µM | HT-29 34.1 µM | HOP-92 55.7 µM

Cc1ccc([N+](=O)[O-])c2c(NCCC[N+](C)(C)[O-])ccnc12
inactive: UACC-62 > 10 µM | SK-MEL-2 52.6 µM | CCRF-CEM 44.6 µM | OVCAR-8 58.9 µM | SK-MEL-5 12.2 µM | HL-60 31.3 µM | SF-539 > 100 µM | KM12 40.1 µM | SK-MEL-28 > 100 µM | MDA-MB-231 > 100 µM | Hs-578T 48.8 µM | M14 40.3 µM | SNB-19 89.5 µM | Malme-3M 44 µM | HT-29 34.8 µM | MCF7 14.9 µM | HOP-92 50.9 µM | DU-145 57.8 µM
